Data on 15 compounds can be found in ChEMBL document CHEMBL1140597, “Evaluating scoring functions for docking and designing beta-secretase inhibitors” (Bioorg Med Chem Lett, 2007).

For the assay, the target named is Beta-secretase 1 (Homo sapiens, UniProt P56817). The experiment in a line: Inhibition of BACE1.
Chain of Beta-secretase 1 (P56817 whole entry): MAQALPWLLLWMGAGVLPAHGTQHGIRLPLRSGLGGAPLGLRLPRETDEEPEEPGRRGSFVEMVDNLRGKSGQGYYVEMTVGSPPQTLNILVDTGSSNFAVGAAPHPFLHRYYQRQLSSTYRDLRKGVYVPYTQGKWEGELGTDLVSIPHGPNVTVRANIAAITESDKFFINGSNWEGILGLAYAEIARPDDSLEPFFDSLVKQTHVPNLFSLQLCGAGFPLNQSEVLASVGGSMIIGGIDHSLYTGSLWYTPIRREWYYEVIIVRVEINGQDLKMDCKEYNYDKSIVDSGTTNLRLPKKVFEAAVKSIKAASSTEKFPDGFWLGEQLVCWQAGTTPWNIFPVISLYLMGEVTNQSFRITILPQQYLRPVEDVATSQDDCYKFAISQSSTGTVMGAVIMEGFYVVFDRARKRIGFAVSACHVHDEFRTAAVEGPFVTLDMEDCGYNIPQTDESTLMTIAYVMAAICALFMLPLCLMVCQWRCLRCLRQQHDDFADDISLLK
Turning to `CC(=O)c1ccccc1-c1cc(C(=O)N[C@@H](Cc2ccccc2)[C@H](O)CN[C@H](C)c2ccccc2)cc(C(=O)N[C@H](C)c2ccccc2)c1`, the IC50 (usually the point on the concentration scale where inhibition reaches its midpoint) turned out to be 0.348 µM. This lies in the sub-micromolar range. The same measure, in the same setting: to `CC(=O)c1ccccc1-c1cc(C(=O)N[C@H](CO)Cc2ccccc2)cc(C(=O)N[C@H](C)c2ccccc2)c1` belongs 9.9 µM.

Regarding `CC(=O)c1ccccc1-c1cc(C(=O)N[C@@H](Cc2ccccc2)[C@H](O)CNC(C)C)cc(C(=O)N[C@H](C)c2ccccc2)c1`, the IC50 amounted to 0.674 µM.

With `C=CCNC[C@@H](O)[C@H](Cc1ccccc1)NC(=O)c1cc(C(=O)N[C@H](C)c2ccccc2)cc(-c2ccccc2C(C)=O)c1`, inhibition was half-maximal at 0.223 µM (IC50). The same measure, in the same setting: in the case of `CC(=O)c1ccccc1-c1cc(C(=O)N[C@@H](Cc2ccccc2)[C@H](O)CNC2CCC2)cc(C(=O)N[C@H](C)c2ccccc2)c1` it was 1.4 µM; in that of `CC(=O)c1ccccc1-c1cc(C(=O)N[C@@H](Cc2ccccc2)[C@H](O)CNCc2ccccc2)cc(C(=O)N[C@H](C)c2ccccc2)c1`, 0.115 µM; in that of `CC(=O)c1ccccc1-c1cc(C(=O)N[C@@H](Cc2ccccc2)[C@H](O)CNCC2CC2)cc(C(=O)N[C@H](C)c2ccccc2)c1`, 0.418 µM. With `CSCC[C@H](NC(=O)[C@@H](NC(=O)OC(C)(C)C)C(C)C)C(=O)N[C@@H](CC(C)C)[C@@H](O)C[C@@H](C)C(=O)N[C@H](C(=O)NCc1ccccc1)C(C)C`, the inhibition constant Ki (usually a measure of affinity in units of concentration, obtained from inhibition or displacement) was 5.81 µM. Compound `CC(=O)c1ccccc1-c1cc(C(=O)N[C@@H](Cc2ccccc2)[C@H](O)CNC2CC2)cc(C(=O)N[C@H](C)c2ccccc2)c1` came in with a half-inhibitory concentration (IC50) of 0.317 µM. Still for that read-out and setting: in the case of `CC(=O)c1ccccc1-c1cc(C(=O)N[C@@H](Cc2ccccc2)[C@H](O)CNc2ccccc2)cc(C(=O)N[C@H](C)c2ccccc2)c1` it was 0.11 µM; in that of `CC(=O)c1ccccc1-c1cc(C(=O)N[C@@H](Cc2ccccc2)[C@H](O)CN[C@@H](C)c2ccccc2)cc(C(=O)N[C@H](C)c2ccccc2)c1`, 0.115 µM. Consider `CC(=O)c1ccccc1-c1cc(C(=O)N[C@@H](Cc2ccccc2)[C@H](O)CN(C)Cc2ccccc2)cc(C(=O)N[C@H](C)c2ccccc2)c1`, for which the concentration for half-maximal inhibition (IC50) is more than 10 µM. In turn, `CC(=O)c1ccccc1-c1cc(C(=O)N[C@@H](Cc2ccccc2)[C@H](O)CN2CCC2)cc(C(=O)N[C@H](C)c2ccccc2)c1` yielded an IC50 of more than 10 µM.

On to `CC(C)C[C@H](NC(=O)[C@H](CS(C)(=O)=O)NC(=O)[C@@H](NC(=O)OC(C)(C)C)C(C)C)[C@@H](O)C[C@@H](C)C(=O)N[C@H](C(=O)NCc1ccccc1)C(C)C`, for which the inhibition constant (Ki) was found to be 0.008 µM.

H-ELDLAVEF-OH came in with an inhibition constant (Ki) of 0.0003 µM.
